Reference: patent EP1591123A1, “USES OF NARINGENIN, NARINGIN AND SALTS THEREOF AS EXPECTORANTS IN THE TREATMENT OF COUGH, AND COMPOSITIONS THEREOF” (Su, Wei-wei, priority 2003, dated 2004)
Counter-ions that a name gives are not always drawn.

Test system: mice
Test: Dispel phlegm test of Naringin, Phenol Red excretion in trachea (Example 29)
Format: in vivo
Conditions: for Dispel phlegm ratio: group given drug / blank control group x 100%; for Excretion quantity of Phenol Red / Rectified excretion quantity of Phenol Red: mice, oral, X±S; for Rectified excretion quantity of Phenol Red: excretion quantity / weight of animal
Protocol: 1. […] Every group was 10 animals. Eight group were set including negative control group, positive control group, high dose group of Naringin, middle dose group of Naringin, low dose group of Naringin, high dose group of sodium salt of Naringin, middle dose group of sodium salt of Naringin, low dose group of sodium salt of Naringin. […]
• 1) Blank control group: physiological saline, 0.9% NaCl; • 2) Positive control group: 0.2g Tankejing was dissolve into 10 ml physiological saline and the sample concentration was 20 mg/ml to obtain the solution for positive control. • 3) low dose group of Naringin: 0.5 mg/ml solution of Naringin was prepared by weighting out the appropriate amount of 5 mg Naringin and dissolving it by ultrasonication in 10 ml physiological saline. • 4) middle dose group of Naringin: 1.5 mg/ml solution of Naringin was prepared by weighting out the appropriate amount of 15 mg Naringin and dissolving it by ultrasonication in 10 ml physiological saline. • 5) high dose group of Naringin: 4.5 mg/ml solution of Naringin was prepared by weighting out the appropriate amount of 45 mg Naringin and dissolving it by ultrasonication in 10 ml physiological saline. • 6) low dose group of sodium salt of Naringin: 0.5 mg/ml solution of sodium salt of Naringin was prepared by weighting out the appropriate amount of 5 mg sodium salt of Naringin and dissolving it by ultrasonication in 10 ml physiological saline. • 7) middle dose group of sodium salt of Naringin: 1.5 mg/ml solution of sodium salt of Naringin was prepared by weighting out the appropriate amount of 15 mg sodium salt of Naringin and dissolving it by ultrasonication in 10 ml physiological saline. • 8) high dose group of sodium salt of Naringin: 4.5 mg/ml solution of sodium salt of Naringin was prepared by weighting out the appropriate amount of 45 mg sodium salt of Naringin and dissolving it by ultrasonication in 10 ml physiological saline.
The calibration curve was calculated by concentration of Phenol Red as y-axis and OD value as x-axis. And the excretion account of Phenol Red in mice was quantitated by calibration curve. • 2) Animals were fasted for 12 hr before dosing. • 3) Animals were oral administered with labeled number, each animal was administered with 3 min and each group was accomplished in 30 min. • 4) After administered 30 min, every animal was injected 2 ml 5% Phenol Red solution via celiac injection. The time of every animal was 3 min. • 5): Every animal was executed with 3 min interval after celiac injection 30 min, and animal trachea was peeled off with forceps after neck skin sniped, which was riveted on operating table. • 6): plasma and Phenol Red adhered to trachea ektexine was sweeped by 0.9% NaCl solution with an injector. And filter paper was used to blot up the solution. • 7): Scissors cut down the animal trachea including thyroid cartilage and trachea back-end. • 8): The trachea was set in test tube with 1.5 ml 5% NaHCO3. • 9): The experiment of every animal was completed in 3 min. […] X indicates OD value; Y indicates excretion account of Phenol Red. • 14): Rectified excretion account of Phenol Red was calculated by account of Phenol Red and weight of animal. Statistical significance of the data was determined by Student's t-test with SPSS 8.0. Rectified excretion account of Phenol Red= Account of Phenol Red (ng) / weight of animal (kg).

| SMILES | Dispel phlegm ratio (5 mg/kg) | Dispel phlegm ratio (15 mg/kg) | Dispel phlegm ratio (45 mg/kg) | Excretion quantity of Phenol Red (5 mg/kg) | Rectified excretion quantity of Phenol Red (5 mg/kg) | Excretion quantity of Phenol Red (15 mg/kg) | Rectified excretion quantity of Phenol Red (15 mg/kg) | Excretion quantity of Phenol Red (45 mg/kg) | Rectified excretion quantity of Phenol Red (45 mg/kg) | dispel phlegm effect (high dose group compared to positive control group of Tankejing) | exudates increase of mice trachea (three doses (low, middle, high), versus negative control group) |
| --- | --- | --- | --- | --- | --- | --- | --- | --- | --- | --- | --- |
| C[C@@H]1O[C@@H](O[C@H]2[C@H](Oc3cc(O)c4c(c3)O[C@H](c3ccc(O)cc3)CC4=O)O[C@H](CO)[C@@H](O)[C@@H]2O)[C@H](O)[C@H](O)[C@H]1O [sodium salt of Naringin] | 169.37% | 189.65% | 432.71% | 0.5250 ± 0.1265 ng | 26.1805 ± 6.9069 ng/kg | 0.5748 ± 0.1417 ng | 29.3153 ± 7.7189 ng/kg | 1.3115 ± 0.3232 ng | 66.8867 ± 17.6117 ng/kg |  |  |
| C[C@@H]1O[C@@H](O[C@H]2[C@H](Oc3cc(O)c4c(c3)O[C@H](c3ccc(O)cc3)CC4=O)O[C@H](CO)[C@@H](O)[C@@H]2O)[C@H](O)[C@H](O)[C@H]1O [Naringin, 4', 5', 7-trihydroxyflavanone-7-rhamnoneglucoside] | 159.02% | 173.12% | 416.72% | 0.4914 ± 0.2215 ng | 25.5811 ± 11.8338 ng/kg | 0.5296 ± 0.2195 ng | 26.7597 ± 13.1502 ng/kg | 1.1488 ± 0.2431 ng | 64.4162 ± 18.7239 ng/kg | statistical better than Tankejing | statistical significance stimulate the exudates increase of mice trachea |
